According to patent publication US20210395305A1, “PEPTIDE FOR COSMETIC APPLICATION” (COLOSSEUM COMBINATORIAL CHEMISTRY CENTRE FOR TECHNOLOGY …, priority 2018, published 2021):
Read-outs that look alike come from different tables or passages of the source. Ends that are not written are not given here.

Experiments:
[1] = target: T1, NGF receptors, TrkA and p75 (Rattus norvegicus, UniProt P35739); test: PC12-Luci c-fos promoter luciferase reporter assay; assay type: cell-based; details: for Ec50 (luminescence): PC12-Luci cells, 4 h at 37° C.
T1 construct: PC12-Luci cells, which endogenously express the NGF receptors, TrkA and p75; endogenous in cells; host or cells: PC12-Luci (rat pheochromocytoma clone B9 with the human c-fos promoter-luciferase reporter)
T1 sequence (P35739 33-799): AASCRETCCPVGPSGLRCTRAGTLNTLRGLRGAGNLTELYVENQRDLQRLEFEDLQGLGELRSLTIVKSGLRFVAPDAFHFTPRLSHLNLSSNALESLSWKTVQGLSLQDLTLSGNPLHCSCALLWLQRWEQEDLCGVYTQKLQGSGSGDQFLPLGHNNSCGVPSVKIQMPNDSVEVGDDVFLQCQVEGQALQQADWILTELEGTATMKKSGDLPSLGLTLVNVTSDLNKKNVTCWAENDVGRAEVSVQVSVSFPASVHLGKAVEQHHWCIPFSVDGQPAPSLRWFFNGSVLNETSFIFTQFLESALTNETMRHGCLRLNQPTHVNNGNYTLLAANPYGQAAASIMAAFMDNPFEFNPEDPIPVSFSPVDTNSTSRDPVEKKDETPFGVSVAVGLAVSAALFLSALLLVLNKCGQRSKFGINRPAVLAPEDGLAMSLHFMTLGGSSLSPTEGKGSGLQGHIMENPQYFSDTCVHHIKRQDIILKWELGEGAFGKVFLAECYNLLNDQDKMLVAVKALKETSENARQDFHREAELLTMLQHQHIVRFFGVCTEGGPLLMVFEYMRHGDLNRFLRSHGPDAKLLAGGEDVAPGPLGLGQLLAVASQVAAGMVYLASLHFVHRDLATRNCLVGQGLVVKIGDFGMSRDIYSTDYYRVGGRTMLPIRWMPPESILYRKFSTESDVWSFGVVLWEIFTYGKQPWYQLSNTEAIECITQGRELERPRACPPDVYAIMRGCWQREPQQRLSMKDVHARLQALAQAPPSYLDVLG
From the text: NGF treatment of rat pheochromocytoma cell line (PC12) results in c-fos mRNA and protein expression (J. Milbrandt, “Nerve growth factor rapidly induces c-fos mRNA in PC12 rat pheochromocytoma cells”, Proc Natl Acad Sci USA. 1986 July; 83(13):4789-93).
Starting from the work of Milbrandt, the Applicant monitored the activation of NFG receptor by using a clone (B9) stably transfected with the human c-fos promoter driving a luciferase reporter gene (PC12-Luci). This clone was used to set up a functional and quantitative assay for the characterization of the activity of NGF1-14.
The experiments were performed in PC12-Luci cells, which endogenously express the NGF receptors, TrkA and p75. Cells were maintained in the following complete culture medium comprising: • DMEM-F12 mixture (DMEM-F12 Glutamax; Life Technologies, GIBCO 10565-018) • 5% fetal bovine serum (FBS, Sigma Aldrich, F7524) • 10% horse serum (HS, Sigma Aldrich, H1138) • 1% penicillin-streptomycin (Life Technologies, GIBCO 15140-122)
For passaging, cells were gently washed with PBS and then incubated with trypsin for 5 min at room temperature or 37° C. Media was added and cells were resuspended (6-8 times).
Experiments were performed in sestuplicate, in black 96 well previously coated with 50 μg/ml collagen type I.
PC-12-Luci cells were seeded at 25000/well in 100 μl complete growth medium. 24h later, cell medium was carefully removed. Cells were then incubated with five concentrations (range 30 ng/ml-300 μg/ml, 1:10 serial dilutions) of NGF1-14 in standard Tyrode buffer with 0.1% BSA (50 μl/well) for 4 h at 37° C. The reference Negermin™ compound (by MimeTech Srl) has been added at 30 μg/ml, as reference. The stock solution of NGF1-14 was resuspended in sterile water, aliquoted and stored at −20° C. The stock solution of Negermin™ compound was resuspended in formulation buffer and stored at −20° C.
After the incubation, the basal level of luminescence was monitored for 30 seconds, by using EnSpire multimode plate reader (PerkinElmer). Then, a Triton-Luciferin mix was added to cells (50 μl/well), in a 1:1 ratio, leading to cell lysis. The obtained luminescence signal was monitored for other 60 seconds. […]
All luminescence values were normalized versus the basal level of luminescence. The response value was calculated as the mean of luminescence of the kinetic recorded.
Data were further analyzed (e.g. calculation of dose-response curves and EC50 values) and graphs plotted using GraphPad Prism (GraphPad Software, Inc.). […]

pro-Collagen I = test: Pro-Collagen I in dermis by Elisa, single administration test; assay type: in vivo, rat
Protocol: (§1) Since the proteins of extracellular matrix collagen and elastin are involved in wound repair, skin aging and photo-aging, the effect of topical application of NGF1-14 on the levels of these two proteins was also analyzed.
(§2) Pro-Collagen I and Elastin were measured by using commercial Elisa kits, first in a single administration test, followed by a two weeks administration test.
(§3) A similar trend was observed by analyzing the two proteins: an increase of both pro-Collagen I (A) and Elastin (B) was detected in dermis of NGF1-14 treated rats at 0.1% dose, after sonication. The effect was less appreciable without applying the ultrasounds.
(§4) The protective action of NGF1-14 at 0.1% dose (P 0.1%) was evaluated on adult skin exposed to sub-erythematous levels of UV-B (MED=60 mJ/cm^2 twice a day) first in a single administration test (one day) then for three weeks before the treatment. This experimental procedure is also refereed as Photo-AGing model (PAG) since it induces structural and molecular changes occurring in aging.

TrkA = TrkA phosphorylation by Western Blot; assay type: in vivo, rat; details: dermis samples, with or without LFS, compared to vehicle controls; FIG. 4
Elastin = Elastin in dermis by Elisa, single administration test; assay type: in vivo, rat
Protocol: as §1, §2, §3, §4

normal human melanocytes = test: Tanning action: melanin content by ELISA; assay type: cell-based; details: cultured for a week, various concentrations
Protocol: The effect of topical application of NGF1-14 on the activation of melanocytes to produce melanin has been assessed.
According to already set up protocols, primary cell cultures of normal human melanocytes were seeded in Petri dishes and cultured for a week, with and without the presence of NGF 1-14 at various concentrations. The melanin content was measured by enzyme immunoassay ELISA.

[2] = Skin distribution of NGF1-14 gel preparation, HPLC-UV of epidermis and dermis extracts; assay type: in vivo, rat; details: 0.1% gel, following LFS, compared to vehicle
Protocol: Distribution experiments were carried out to evaluate the ability of NGF1-14 gel preparation to penetrate the corneal stratus and reach the dermis, also by using sonophoresis-like strategies to facilitate skin penetration.
Tape-striping and ultrasounds were applied on the shaved dorsal area of female adult Sprague Dawley (SD) rats (10-12 months).
Low-Frequency Sonophoresis (LFS) was applied using a Sonics Ultrasonic Processor Model VCX 400 operating at a frequency of 20 KHz (tip displacement of about 2 cm, continuous mode) for 6 or 10 minutes, according to common clinical practices, since a prolonged use of sonophoresis is known to increase skin permeation but also to a considerable thermal damage, which is not appropriate for the use (Ref. International Journal of Health Sciences & Research 477 Vol. 5; Issue: 5; May 2015: A Review on Ultrasound Parameters and Methods of Application in Transdermal Drug Delivery).
Vehicle control and NGF1-14 gel preparation were administered on the skin portion pre-treated with LFS (S) or on shaved/tape striping skin (NS).
Treatment was repeated after two hours, and rats were sacrificed to dissect skin samples 2 hours after the second gel/NGF mimetic application. […]
Quantification of NGF 1-14 was determined by HPLC-UV, on a reverse phase C4 column, eluting with phosphate buffer (pH 7.4) and acetonitrile. […]

[3] = pKa by potentiometric pH-metric titration (Sirius T3); assay type: physicochemical; details: 0.15 M KCl solution (ISA water), 25±1° C.
Protocol: Experimental pKa as well as partition and distribution coefficients (log P and log D) were determined using an automated potentiometric titrator Sirius T3 (Sirius Analytical Instruments Ltd., East Sussex, UK) equipped with an Ag/AgCl double junction reference pH electrode, a Sirius D-PAS spectrometer and a turbidity sensing device. The pH electrode was calibrated titrimetrically in the pH range 1.8-12.2. An overhead stirrer was used and a temperature probe monitored the temperature during the course of the titration. The titration experiments were conducted in 0.15 M KCl solution (ISA water) under an argon atmosphere at a temperature of 25±1° C. All tests were performed using standardized 0.5 M KOH and 0.5 M HCl as titration reagents, for the partition coefficient tests a saturated Octanol in ISA water (5% of ISA water) was used as partition solvent. The pKa is determined by potentiometric method by pH-metric titration. The powder (around 0.5 mg) was dissolved in 1.5 ml of ISA water and the titration was performed in triplicate in the pH range 2.0-12.0. Log P is performed in triplicate by dissolving the powder (around 0.7 mg) in 1 ml of ISA water followed by pH metric titration in three different percentage of Octanol (generally 50%, 60%, 70%). The predicted pKa and the calculated log P for the instrumental model was performed using ACD/Percepta.

[4] = without applying the ultrasounds

rhNGF: human recombinant NGF
Ec50 (luminescence) [1]: 1.4 ng/mL

SSSHPIFHRGEFSV [NGF1-14, SSSHPIFHRGEFSV]
pro-Collagen I in dermis (pro-Collagen I; 0.1% dose, after sonication, FIG. 5A): increase | Collagen I in dermis (pro-Collagen I; [4]): comparable to the positive control value | phosphorylation levels of TrkA (TrkA): increased phosphorylation levels of TrkA | Elastin in dermis (Elastin; 0.1% dose, after sonication, FIG. 5B): increase | Elastin in dermis (Elastin; [4]): slight increase | melanin content (normal human melanocytes): An increase was observed | NGF1-14 level in epidermis ([2]; FIG. 3A): significant increase | NGF1-14 level in dermis ([2]; FIG. 3B): significant increase | level of basal luminescence ([1]; 30 ng/ml-300 μg/ml, 4 h): increases the level of basal luminescence in a dose-dependent manner | in vitro potency compared with reference standard ([1]; Negermin™ compound added at 30 μg/ml): higher than reference standard Negermin™ compound, but lower than rhNGF | Ec50 (luminescence) [1]: 290.95 ng/mL | pKa ([3]; read-out: Acid pKa): 4.42 ± 0.05 | pKa ([3]; read-out: Base pKa): 7.41 ± 0.07
